Experiments:
pain = details: experiments on animals; intrathecal application in rats; cited from earlier work
physical dependence = details: compared with morphine; cited from earlier work
thermal pain = assay: Thermal pain sensitivity after subarachnoid administration via cannula; assay type: in vivo; details: rats, dose of 5 mg
From the text: Two days prior to the experiments, rats were implanted with cannulae into the subarachnoid cavity. During the experiment, the analgesic activity was examined by administering the peptide analogue (N′-Tyrosyl-D-alanyl-glycyl-phenylalanyl, N″-alpha-methyl-4-(2-methylpropyl) benzenoacetyl-D-tryptophanyl)-hydrazide.

[1] = test system: acute pain in mice with inflammation; assay: Tail immersion in water heated to 55° C. in murine melanoma metastasis model with inflammation; assay type: in vivo; details: two weeks after murine melanoma cells into the hind limb, intraperitoneal injection 30 mg/kg
Description: In an animal metastasis model, inflammation was induced by administering around a million cells of murine melanoma into the hind limb. After two days, a progressing inflammation was observed, elicited by tumour take. After two weeks of tumour development, the analgesic activity of (N′-Tyrosyl-D-alanyl-glycyl-phenylalanyl, N″-salicyl-glycyl-D-tryptophanyl)-hydrazide was examined against acute pain caused by tail immersion in water heated to 55° C.

[2] = test system: acute pain in mice with inflammation; assay: Tail immersion in water at 55° C. in mice with Freund's adjuvant-induced inflammation; assay type: in vivo; details: one week after Freund's adjuvant into the limb, intravenous injection 20 mg/kg
Description: Inflammation was induced in mice through application of Freund's adjuvant into the limb. A progressing inflammation was observed after two days. After a week, the analgesic effects on acute pain of the peptide analogue HCl.Tyr-D-Ala-Gly-Phe-NHNH-(CBz-D-Trp-) were examined via the immersion of the tail in water at 55° C.

For C[C@@H](NC(=O)[C@@H](N)Cc1ccc(O)cc1)C(=O)NCC(=O)N[C@@H](Cc1ccccc1)C(=O)NNC(=O)[C@H](Cc1ccccc1)NC(=O)CNC(=O)[C@@H](C)NC(=O)[C@@H](N)Cc1ccc(O)cc1 [biphalin], the analgesic activity (pain) is listed as “significant analgesic activity” and the “habit-forming activity (physical dependence)” value (physical dependence) is listed as “much lesser habit-forming activity”.
In the case of “(N′-Tyrosyl-D-alanyl-glycyl-phenylalanyl, N″-alpha-methyl-4-(2-methylpropyl) benzenoacetyl-D-tryptophanyl)-hydrazide [Example III]”, the “duration of elimination of sensitivity to thermal pain” value (thermal pain) is reported as 1 h and the “sensitivity to thermal pain” value (thermal pain) is reported as “complete elimination”.
In the case of “(N′-Tyrosyl-D-alanyl-glycyl-phenylalanyl, N″-salicyl-glycyl-D-tryptophanyl)-hydrazide [Example II]”, the “pain reaction (analgesic activity against acute pain, tail immersion)” value [1] is reported as “completely mitigated”.
In the case of “(N′-tyrosyl-D-alanyl-glycyl-phenylalanyl, N″-benzoxycarbonyl-D-tryptophanyl) hydrazide [Example I]”, the “pain reaction (analgesic effect on acute pain, tail immersion)” value [2] is reported as “completely mitigated”.

From US20120004180A1, “METHOD OF PRODUCING A NOVEL OPIOID PEPTIDE” (priority 2008, published 2012)
